Laboratory results taken from patent US11603373B2, “TDO2 and IDO1 inhibitors” (Genentech, Inc., priority 2017, dated 2023).

Assays:
[1] = target: T1, IDO1 (A172+IFNg cells, high IDO expressing cells) (Homo sapiens, UniProt P14902); experiment: NFK GreenScreen cell assay, inhibition of IDO in A172+IFNg cells; assay type: cell-based; conditions: read-out: IDO cell Fluor EC50
T1 construct: A172+IFNg cells (high IDO expressing cells); endogenous in cells; host or cells: A172 cells induced with 100 ng/ml IFNγ
T1 sequence (P14902 whole entry): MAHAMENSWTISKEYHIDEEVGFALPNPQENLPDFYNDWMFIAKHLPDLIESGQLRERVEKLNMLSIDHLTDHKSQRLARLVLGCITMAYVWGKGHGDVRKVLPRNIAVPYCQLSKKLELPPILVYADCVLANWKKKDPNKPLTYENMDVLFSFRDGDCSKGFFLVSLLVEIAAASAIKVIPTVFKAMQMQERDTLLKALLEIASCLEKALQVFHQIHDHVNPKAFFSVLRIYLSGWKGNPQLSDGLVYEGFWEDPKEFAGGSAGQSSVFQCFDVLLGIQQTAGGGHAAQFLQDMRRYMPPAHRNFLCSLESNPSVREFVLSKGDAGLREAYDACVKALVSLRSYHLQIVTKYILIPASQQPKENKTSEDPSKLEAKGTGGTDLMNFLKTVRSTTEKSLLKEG
Excerpt: (§1) Cells are counted on a Vi-Cell (Beckman Coulter). […] The final DMSO concentration is 0.5%.

[2] = target: T2, TDO2 (SW48 cells, high TDO expressing cells) (Homo sapiens, UniProt P48775); experiment: NFK GreenScreen cell assay, inhibition of TDO in SW48 cells; assay type: cell-based; conditions: read-out: TDO2 Cell Fluor EC50
T2 construct: SW48 cells (high TDO expressing cells); endogenous in cells; host or cells: SW48 cells
T2 sequence (P48775 whole entry): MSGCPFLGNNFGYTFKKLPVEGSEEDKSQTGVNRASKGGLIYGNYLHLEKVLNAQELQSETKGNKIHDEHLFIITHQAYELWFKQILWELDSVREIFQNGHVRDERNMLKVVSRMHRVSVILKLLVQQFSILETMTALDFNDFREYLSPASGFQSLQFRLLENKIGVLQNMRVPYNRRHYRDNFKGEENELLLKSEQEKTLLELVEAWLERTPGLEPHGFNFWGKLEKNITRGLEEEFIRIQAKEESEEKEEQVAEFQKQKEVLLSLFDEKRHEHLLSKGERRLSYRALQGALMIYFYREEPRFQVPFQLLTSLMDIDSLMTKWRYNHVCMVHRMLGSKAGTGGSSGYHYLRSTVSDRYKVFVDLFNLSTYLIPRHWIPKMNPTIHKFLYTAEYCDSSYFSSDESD
Excerpt: as §1

With `O=C(C1CCOCC1)N1CCC2(CC1)C[C@@H]([C@H]1c3ccccc3-c3cncn31)[C@H]2O` [compound 45, [3-hydroxy-2-(5H-imidazo[1,5-b]isoindol-5-yl)-7-azaspiro[3.5]nonan-7-yl]-tetrahydropyran-4-yl-methanone] the EC50 [1] was 2400 nM and the EC50 [2] was 2100 nM.
Compound `Cc1noc(C)c1S(=O)(=O)N1CCC2(CC1)C[C@@H]([C@H]1c3ccccc3-c3cncn31)[C@H]2O` [compound 31] has an EC50 [1] of 150 nM and an EC50 [2] of 2200 nM.
With `CC(C)(C)OC(=O)N1[C@@H]2CC[C@H]1C[C@]1(C[C@@H]([C@@H]3c4ccccc4-c4cncn43)[C@@H]1O)C2` (single isomer, unassigned) [Example 12e] the EC50 [1] was 3900 nM and the EC50 [2] was 1500 nM.
`CN1C(=O)Cc2cc(S(=O)(=O)N3CCC4(CC3)CC(C3c5ccccc5-c5cncn53)C4O)ccc21` (stereo not shown) [compound 37, 5-[[3-hydroxy-2-(5H-imidazo[1,5-b]isoindol-5-yl)-7-azaspiro[3.5]nonan-7-yl]sulfonyl]-1-methyl-indolin-2-one] showed an EC50 [1] of 230 nM and an EC50 [2] of 1100 nM.
Work on `NS(=O)(=O)N1CCC2(CC1)C[C@H]([C@H]1c3ccccc3-c3cncn31)[C@H]2O` (single isomer, unassigned) [Example 11g] yielded an EC50 [1] of 4700 nM and an EC50 [2] of 930 nM.
Compound `O=C(OCC(F)F)N1CCC2(CCC(C3c4ccccc4-c4cncn43)C2O)CC1` (single isomer, unassigned) [compound 60, 2,2-difluoroethyl 1-hydroxy-2-(5H-imidazo[5,1-a]isoindol-5-yl)-8-azaspiro[4.5]decane-8-carboxylate] has an EC50 [1] of 40 nM and an EC50 [2] of 56 nM.
Compound `CC(C)(C)OC(=O)N[C@H]1CC[C@@]2(CC1)C[C@@H]([C@H]1c3ccccc3-c3cncn31)[C@H]2O` (single isomer, unassigned) [Example 24l] has an EC50 [1] of 1900 nM and an EC50 [2] of 8600 nM.
`CC(C)(C)OC(=O)N1[C@@H]2CC[C@H]1C[C@@]1(C[C@@H]([C@@H]3c4ccccc4-c4cncn43)[C@@H]1O)C2` (single isomer, unassigned) [Example 12m] showed an EC50 [1] of 2000 nM and an EC50 [2] of 15000 nM.
`CC(C)(C)OC(=O)N1[C@@H]2CC[C@H]1C[C@]1(C[C@@H]([C@H]3c4ccccc4-c4cncn43)[C@H]1O)C2` (single isomer, unassigned) [Example 12j] was tested, and the EC50 [1] was 120 nM and the EC50 [2] was 740 nM.
With `O=S1(=O)CCC2(CC[C@@H]([C@H]3c4ccccc4-c4cncn43)[C@H]2O)CC1` (relative stereo) [Example 13a, (1R,2S)-1-hydroxy-2-((S)-5H-imidazo[5,1-a]isoindol-5-yl)-8-thiaspiro[4.5]decane 8,8-dioxide] the EC50 [1] was 290 nM and the EC50 [2] was 160 nM.
In the case of `O=C([C@H]1CC1(F)F)N1CCC2(CC[C@@H]([C@H]3c4ccccc4-c4cncn43)[C@H]2O)CC1` (single isomer, unassigned) [Example 25b], the EC50 [1] is reported as 160 nM and the EC50 [2] is reported as 150 nM.
Compound `CS(=O)(=O)N1CCC2(CC1)C[C@@H]([C@@H]1c3ccccc3-c3cncn31)[C@@H]2O` (single isomer, unassigned) [Example 6h] has an EC50 [1] of 6500 nM and an EC50 [2] of 8600 nM.
Work on `Cn1cc(CCC(=O)N2CCC3(CC2)C[C@@H]([C@H]2c4ccccc4-c4cncn42)[C@H]3O)cn1` [compound 55, 1-[3-hydroxy-2-(5H-imidazo[1,5-b]isoindol-5-yl)-7-azaspiro[3.5]nonan-7-yl]-3-(1-methylpyrazol-4-yl)propan-1-one] yielded an EC50 [1] of 510 nM and an EC50 [2] of 810 nM.
With `Cn1cc(S(=O)(=O)N2CCC3(CC2)CC(C2c4ccccc4-c4cncn42)C3O)cn1` (stereo not shown) [compound 26, 2-(5H-imidazo[1,5-b]isoindol-5-yl)-7-(1-methylpyrazol-4-yl)sulfonyl-7-azaspiro[3.5]nonan-3-ol] the EC50 [1] was 110 nM and the EC50 [2] was 220 nM.
In the case of `NS(=O)(=O)N1CCC2(CC1)C[C@H]([C@H]1c3ccccc3-c3cncn31)[C@@H]2O` (single isomer, unassigned) [Example 11f], the EC50 [1] is reported as 58.5 nM and the EC50 [2] is reported as 182 nM.
`NS(=O)(=O)N1CC2(CC[C@H]([C@@H]3c4ccccc4-c4cncn43)[C@H]2O)C1` (single isomer, unassigned) [Example 18] was tested, and the EC50 [1] was 580 nM and the EC50 [2] was 110 nM.
`O=C(C1CCS(=O)(=O)C1)N1CCC2(CC1)C[C@@H]([C@H]1c3ccccc3-c3cncn31)[C@H]2O` (stereo partly shown) [compound 65, (1,1-dioxothiolan-3-yl)-[3-hydroxy-2-(5H-imidazo[1,5-b]isoindol-5-yl)-7-azaspiro[3.5]nonan-7-yl]methanone] showed an EC50 [1] of 6300 nM and an EC50 [2] of 9000 nM.
For `CC(C)(C)OC(=O)N[C@H]1CC[C@]2(CC1)C[C@H]([C@@H]1c3ccccc3-c3cncn31)[C@H]2O` (single isomer, unassigned) [Example 24c], the EC50 [1] was 5200 nM and the EC50 [2] was 730 nM.
`CC(C)(C)OC(=O)N[C@H]1CC[C@@]2(CC1)C[C@H]([C@H]1c3ccccc3-c3cncn31)[C@@H]2O` (single isomer, unassigned) [Example 24e] was tested, and the EC50 [1] was 10000 nM and the EC50 [2] was 16000 nM.
`O=C(OCC(F)F)N1CCC2(CC1)C[C@@H]([C@H]1c3ccccc3-c3cncn31)[C@H]2O` [compound 57, 2,2-difluoroethyl (2S,3R)-3-hydroxy-2-[(5S)-5H-imidazo[1,5-b]isoindol-5-yl]-7-azaspiro[3.5]nonane-7-carboxylate] showed an EC50 [1] of 87 nM and an EC50 [2] of 260 nM.
